Assay results published in patent US8574831B2, “Mutational profiles in HIV-1 reverse transcriptase correlated with phenotypic drug resistance” (Virco N.V., priority 2000, dated 2013).

Experiments:
[1] = tested on: HIV with mutations in the reverse transcriptase gene sequence; assay: Phenotypic fold resistance to reverse transcriptase inhibitors, RT mutations at positions 101, 103, 181, 190 (Examples 4-7); type: cell-based, HIV-1
Method: As is the case with the genotyping assays, the recombinant virus assay starts with the amplification of viral target sequences by means of PCR. The amplicons are incorporated into a proviral laboratory clone with sequences homologous to those present in the amplicon deleted. This generates a stock of chimeric viruses. The viruses are tested for their ability to grow in the presence of different concentrations of drugs. Results are obtained by calculating IC50 values for each inhibitor and by reporting the results as IC50 values, expressed in μM concentrations, or by computing the ratio of the IC50 values found for the chimeric virus to the IC50 values found for a wild type susceptible laboratory virus tested in parallel. In the latter case, resistance is expressed as “fold-resistance” compared to a wild-type susceptible HIV-1 strain. In order to meet the need for high-volume testing and a short turn-around time for an individual test, the latest generation of phenotyping assays has undergone further modifications. The use of reporter gene systems for susceptibility testing allows the implementation of laboratory automation and standardization. See Pauwels, et al., J. Virol. Methods 20, 309-321 (1998); Paulous, S., et al., International Workshop on HIV Drug Resistance, Treatment Strategies and Eradication, St. Petersburg, Fla., USA. Abstr. 46 (1997); and Deeks, S. G., et al., 2nd International Workshop on HIV Drug Resistance and Treatment Strategies, Lake Maggiore, Italy. Abstr. 53 (1998).
The methods of monitoring HIV-1 drug resistance, may also be used in combination with phenotypic drug resistance testing of viral isolates. For example, in one embodiment, a phenotypic test is utilized that is based upon the construction of chimeric HIV-1 strains composed of the protease (PR) and reverse transcriptase (RT) gene sequences which are isolated and amplified from the patient viral RNA. These strains may subsequently be recombined inside CD4+ T cells with a standard laboratory isogenic (HXB2) HIV-1 DNA construct from which the PR/RT gene sequences were deleted. The recombinant strains may then be grown in the presence of the above-mentioned antiviral drugs and the susceptibility of the viral isolates may be expressed as fold-change value of the IC50 of the drug on the patient isolates over the IC50 of the drug on a wild-type laboratory reference strain.
(§1) Overview of the mean fold increase in resistance and the effect of the 101 mutations in the HIV reverse transcriptase gene sequence. The fold increase in resistance is calculated from the increase in the mean IC50 of the drug relative to the mean IC50 of the same drug for a wild-type reference laboratory HIV-1 strain. The effect of the mutations was investigated on Nevirapine, Delavirdine and Efavirenz.
as §1, with “103” for “101”, “strain.” for “strain. The effect of the mutations was investigated on Nevirapine, Delavirdine and Efavirenz.”
as §1, with “181” for “101”, “strain.” for “strain. The effect of the mutations was investigated on Nevirapine, Delavirdine and Efavirenz.”
as §1, with “190” for “101”, “strain.” for “strain. The effect of the mutations was investigated on Nevirapine, Delavirdine and Efavirenz.”

[2] = tested on: HIV-1 HXB2-D variants with site-directed RT mutations; assay: MT-4 cell CPE protection assay, HIV-1 variants constructed by site-directed mutagenesis (Example 2); type: cell-based
Method: Mutations in the RT coding region were created by site-directed mutagenesis of a wild-type HXB2-D EcoRl-Pstl restriction enzyme fragment, encompassing the HIV-1 pol gene and cloned into pGEM3 (Promega). Single and multiple nucleotide changes were introduced into RT using the EXSITE™ mutagenesis kit (Strategene). All mutant clones were verified by DNA sequence analysis of the entire RT. PCR fragments were prepared from the mutated clones and the altered RT coding regions were transferred into the HIV-1 HXB2-D genetic background by homologous recombination as described above. The susceptibility of these recombinant viruses to nucleoside analogues was subsequently determined by the MT-4 cell CPE protection assay. Id.

SMILES	fold increase in resistance compared to a laboratory reference strain (WT) ([1]; RT genotype 101E) [fold]	fold increase in resistance compared to a laboratory reference strain (WT) ([1]; RT genotype 101H) [fold]	fold increase in resistance compared to a laboratory reference strain (WT) ([1]; RT genotype 101P) [fold]	fold increase in resistance compared to a laboratory reference strain (WT) ([1]; RT genotype 101Q) [fold]	mean fold increase in resistance compared to a laboratory reference strain (WT) ([1]; RT genotype 103H) [fold]	mean fold increase in resistance compared to a laboratory reference strain (WT) ([1]; RT genotype 103N) [fold]	mean fold increase in resistance compared to a laboratory reference strain (WT) ([1]; RT genotype 103R) [fold]	mean fold increase in resistance compared to a laboratory reference strain (WT) ([1]; RT genotype 103S) [fold]	mean fold increase in resistance compared to a laboratory reference strain (WT) ([1]; RT genotype 103T) [fold]	fold increase in resistance compared to a laboratory reference strain (WT) ([1]; RT genotype 181C) [fold]	fold increase in resistance compared to a laboratory reference strain (WT) ([1]; RT genotype 181I) [fold]	fold increase in resistance compared to a laboratory reference strain (WT) ([1]; RT genotype 181S) [fold]	fold increase in resistance compared to a laboratory reference strain (WT) ([1]; RT genotype 190A) [fold]	fold increase in resistance compared to a laboratory reference strain (WT) ([1]; RT genotype 190E) [fold]	fold increase in resistance compared to a laboratory reference strain (WT) ([1]; RT genotype 190Q) [fold]	fold increase in resistance compared to a laboratory reference strain (WT) ([1]; RT genotype 190S) [fold]	fold increase in resistance compared to a laboratory reference strain (WT) ([1]; RT genotype WT (Table 5)) [fold]	mean fold increase in resistance compared to a laboratory reference strain (WT) ([1]; RT genotype WT (Table 6)) [fold]	fold increase in resistance compared to a laboratory reference strain (WT) ([1]; RT genotype WT (Table 7)) [fold]	fold increase in resistance compared to a laboratory reference strain (WT) ([1]; RT genotype WT (Table 8)) [fold]	further results
Cc1ccnc2c1NC(=O)c1cccnc1N2C1CC1 [Nevirapine, nevirapine]	4.9	24.0	53.4	1.9	69.4	48.1	1.1	45.4	43.7	56.0	63.8	82.8	60.7	40.0	52.7	75.9	1.3	1.3	1.3	1.3	–
O=C1Nc2ccc(Cl)cc2[C@@](C#CC2CC2)(C(F)(F)F)O1 [Efavirenz, efavirenz]	2.4	3.5	84.2	0.9	52.7	486.8	0.6	8.4	2.8	2.0	2.0	8.7	24.8	385.3	401.1	483.6	0.9	0.9	0.9	0.9	–
CC(C)Nc1cccnc1N1CCN(C(=O)c2cc3cc(NS(C)(=O)=O)ccc3[nH]2)CC1 [Delavirdine, delavirdine]	7.7	45.5	162.4	1.2	191.6	176.1	1.6	18.3	84.5	82.5	81.7	147.9	2.3	131.1	34.0	1.9	1.8	1.8	1.8	1.8	–
Nc1nc(NC2CC2)c2ncn([C@H]3C=C[C@@H](CO)C3)c2n1 [abacavir, 4-[(2-amino-6-cyclopropyl-amino)-9H-purin-9-yl]-2-cyclopentene-1-methanol]	–	–	–	–	–	–	–	–	–	–	–	–	–	–	–	–	–	–	–	–	susceptibility ([2]; 69S-[S-S] insert plus AZT resistance mutations (210W and 215Y)): decreased susceptibility
O=c1[nH]cnc2c1ncn2[C@H]1CC[C@@H](CO)O1 [ddl, didanosine]	–	–	–	–	–	–	–	–	–	–	–	–	–	–	–	–	–	–	–	–	resistance ([2]; T69A or V75M in a background of AZT mutations): little or no resistance
